Our source for the T/C values is PubChem BioAssay AID226 (DTP/NCI, 2004).

Where “and” joins values, the source holds several entries; their conditions need not be identical. Equal entries are not always repeated. Toxic doses and inconclusive results are not listed.

For this assay, the system named is B6C3F1 mice, intracerebral ependymoblastoma, median survival T/C. Briefly: NCI In Vivo Anticancer Drug Screen. Data for tumor model Ependymoblastoma (intracerebral) in B6C3F1 mice. As to conditions: endpoint: median survival time, higher = longer survival. The procedure:
The antitumor activity of compounds was measured in mice bearing transplantable tumors. Survival or tumor size were measured and the results are expressed as the measurement made in the treated group (T) divided by the measurement made in the vehicle treated control group (C). The tumor model used in this assay is Ependymoblastoma (intracerebral) in B6C3F1 mice

Setting [1] is: dose: 2.0 mg/kg/injection, schedule: Q01DX005 (ip), vehicle: saline.
[2] abbreviates: dose: 4.0 mg/kg/injection, schedule: Q01DX005 (ip), vehicle: saline.
[3] abbreviates: dose: 50.0 mg/kg/injection, schedule: Q01DX005 (ip), vehicle: saline with Tween-80.
[4] abbreviates: dose: 100.0 mg/kg/injection, schedule: Q01DX005 (ip), vehicle: saline with Tween-80.

For the compound `CC1CCC(NC(=O)N(CCCl)N=O)CC1` (centres undefined), the T/C by setting is: (dose: 0.5 mg/kg/injection, schedule: Q01DX009 (ip), vehicle: Klucel (hydroxypropylcellulose) (HPC)) 108 % of control; (dose: 1.0 mg/kg/injection, schedule: Q01DX005 (ip), vehicle: other) 110 % of control; (dose: 1.0 mg/kg/injection, schedule: Q01DX009 (ip), vehicle: Klucel (hydroxypropylcellulose) (HPC)) 106 % of control; (dose: 2.0 mg/kg/injection, schedule: Q01DX005 (ip), vehicle: other) 160 % of control; under setting [1], 102 % of control; (dose: 2.0 mg/kg/injection, schedule: Q01DX009 (ip), vehicle: Klucel (hydroxypropylcellulose) (HPC)) 112 % of control. In addition, the T/C by setting is: (dose: 4.0 mg/kg/injection, schedule: Q01DX005 (ip), vehicle: other) 119 % of control; under setting [2], 108 % of control; (dose: 6.25 mg/kg/injection, schedule: Q01DX001 (ip), vehicle: saline + alcohol) 118 % of control; (dose: 8.0 mg/kg/injection, schedule: Q01DX005 (ip), vehicle: other) 160 % of control; (dose: 8.3 mg/kg/injection, schedule: Q01DX001 (ip), vehicle: DMSO) 104 % of control; (dose: 13.8 mg/kg/injection, schedule: Q01DX001 (ip), vehicle: DMSO) 108 % of control. The T/C is, setting by setting: (dose: 16.0 mg/kg/injection, schedule: Q01DX001 (ip), vehicle: other) 124 % of control; (dose: 16.0 mg/kg/injection, schedule: Q01DX005 (ip), vehicle: other) 300 % of control; (dose: 23.0 mg/kg/injection, schedule: Q01DX001 (ip), vehicle: DMSO) 122 % of control; (dose: 25.0 mg/kg/injection, schedule: Q01DX001 (ip), vehicle: saline + alcohol) 182 % of control; (dose: 38.4 mg/kg/injection, schedule: Q01DX001 (ip), vehicle: DMSO) 112 % of control; (dose: 50.0 mg/kg/injection, schedule: Q01DX001 (ip), vehicle: saline + alcohol) 235 % of control. The T/C reads like this: (dose: 64.0 mg/kg/injection, schedule: Q01DX001 (ip), vehicle: DMSO) 118 % of control; (dose: 64.0 mg/kg/injection, schedule: Q01DX001 (ip), vehicle: other) 191 % of control; (dose: 128.0 mg/kg/injection, schedule: Q01DX001 (ip), vehicle: other) 204 % of control.
For `Cc1cnc(/C=N\NC(N)=S)c2cccc(N)c12`, the T/C reads like this: (dose: 12.5 mg/kg/injection, schedule: Q01DX005 (ip), vehicle: saline with Tween-80) 100 % of control; (dose: 25.0 mg/kg/injection, schedule: Q01DX005 (ip), vehicle: saline with Tween-80) 103 % of control; under setting [3], 104 % of control; under setting [4], 102 % of control.
As to `NC(=O)c1csc(C2OC(CO)C(O)C2O)n1` (centres undefined), the T/C is 96 % of control (dose: 9.38 mg/kg/injection, schedule: Q01DX009 (ip), vehicle: saline); 107 % of control (dose: 18.8 mg/kg/injection, schedule: Q01DX009 (ip), vehicle: saline); 93 % of control and 110 % of control (dose: 37.5 mg/kg/injection, schedule: Q01DX005 (ip), vehicle: saline); 99 % of control and 110 % of control (dose: 37.5 mg/kg/injection, schedule: Q01DX009 (ip), vehicle: saline); 101 % of control and 107 % of control (dose: 75.0 mg/kg/injection, schedule: Q01DX005 (ip), vehicle: saline); 112 % of control and 121 % of control (dose: 75.0 mg/kg/injection, schedule: Q01DX009 (ip), vehicle: saline). Further, the T/C by setting is: (dose: 150.0 mg/kg/injection, schedule: Q01DX005 (ip), vehicle: saline) 113 % of control and 116 % of control; (dose: 150.0 mg/kg/injection, schedule: Q01DX009 (ip), vehicle: saline) 110 % of control and 119 % of control; (dose: 300.0 mg/kg/injection, schedule: Q01DX005 (ip), vehicle: saline) 108 % of control and 114 % of control; (dose: 300.0 mg/kg/injection, schedule: Q01DX009 (ip), vehicle: saline) 114 % of control; (dose: 600.0 mg/kg/injection, schedule: Q01DX005 (ip), vehicle: saline) 101 % of control and 114 % of control; (dose: 600.0 mg/kg/injection, schedule: Q01DX009 (ip), vehicle: saline) 123 % of control.
As to `CCSc1ncnc2c1ncn2C1OC(CO)C(O)C1O` (centres undefined), the T/C under setting [3] was 100 % of control and 106 % of control and 122 % of control; the T/C under setting [4] is 103 % of control and 106 % of control; the T/C (dose: 200.0 mg/kg/injection, schedule: Q01DX005 (ip), vehicle: saline with Tween-80) was 107 % of control and 109 % of control.
With `CCOC(=O)CC(SP(=S)(OC)OC)C(=O)OCC` (centres undefined), the T/C reads like this: (dose: 25.0 mg/kg/injection, schedule: Q01DX005 (ip), vehicle: suspension in saline) 100 % of control; (dose: 50.0 mg/kg/injection, schedule: Q01DX005 (ip), vehicle: suspension in saline) 124 % of control; (dose: 100.0 mg/kg/injection, schedule: Q01DX005 (ip), vehicle: suspension in saline) 101 % of control; (dose: 200.0 mg/kg/injection, schedule: Q01DX005 (ip), vehicle: suspension in saline) 105 % of control.
For `Cc1nc(N)nc(N)c1-c1ccc(Cl)c(Cl)c1`, the T/C is 106 % of control (dose: 1.25 mg/kg/injection, schedule: Q01DX005 (ip), vehicle: saline); 102 % of control (dose: 2.5 mg/kg/injection, schedule: Q01DX005 (ip), vehicle: saline); 120 % of control (dose: 5.0 mg/kg/injection, schedule: Q01DX005 (ip), vehicle: saline).
As for `CN1C(=O)CC(c2ccc(NC(=O)N(CCCl)N=O)cc2)C1=O` (centres undefined), the T/C is, setting by setting: (dose: 0.75 mg/kg/injection, schedule: Q01DX005 (ip), vehicle: distilled water + Tween-80) 119 % of control; (dose: 1.5 mg/kg/injection, schedule: Q01DX005 (ip), vehicle: distilled water + Tween-80) 180 % of control; (dose: 6.0 mg/kg/injection, schedule: Q01DX005 (ip), vehicle: distilled water + Tween-80) 210 % of control; (dose: 12.0 mg/kg/injection, schedule: Q01DX005 (ip), vehicle: distilled water + Tween-80) 240 % of control.
Take `NC(=O)N(CCCl)N=O`: the T/C was 121 % of control (dose: 1.0 mg/kg/injection, schedule: Q01DX001 (ip), vehicle: saline + alcohol) and 184 % of control (dose: 4.0 mg/kg/injection, schedule: Q01DX001 (ip), vehicle: saline + alcohol).
For the compound `O=C1c2c(O)ccc(O)c2C(=O)c2c(NCCNCCO)ccc(NCCNCCO)c21`, the T/C (dose: 0.25 mg/kg/injection, schedule: Q01DX005 (ip), vehicle: saline with Tween-80) was 103 % of control; the T/C (dose: 0.5 mg/kg/injection, schedule: Q01DX005 (ip), vehicle: saline with Tween-80) is 92 % of control and 98 % of control; the T/C (dose: 1.0 mg/kg/injection, schedule: Q01DX005 (ip), vehicle: saline with Tween-80) is 103 % of control and 104 % of control; the T/C (dose: 2.0 mg/kg/injection, schedule: Q01DX005 (ip), vehicle: saline with Tween-80) is 91 % of control and 103 % of control.
As for `CCN(CC)c1ccc2cc3ccc(=[N+](CC)CC)cc-3oc2c1`, the T/C reads like this: under setting [1], 110 % of control; under setting [2], 90 % of control; (dose: 8.0 mg/kg/injection, schedule: Q01DX005 (ip), vehicle: saline) 93 % of control.
`O=P1(N(CCCl)CCCl)NCCCO1` (centres undefined): the T/C runs as follows: (dose: 40.0 mg/kg/injection, schedule: Q01DX001 (ip), vehicle: saline) 109 % of control; (dose: 320.0 mg/kg/injection, schedule: Q01DX001 (ip), vehicle: saline) 163 % of control.
With `COc1ccc2c(c1OC(C)=O)-c1cc(OC(C)=O)cc3c1C(C2)N(C(=O)CBr)CC3` (centres undefined), the T/C reads like this: (dose: 25.0 mg/kg/injection, schedule: Q01DX005 (ip), vehicle: saline) 96 % of control; (dose: 50.0 mg/kg/injection, schedule: Q01DX005 (ip), vehicle: saline) 91 % of control.
